≈ marks a conversion by molar mass, not a printed value.
Key:
[1] = tested on: panel of 12 human tumour cell lines; test: monolayer proliferation assay (modified propidium iodide assay) in a panel of 12 human tumour cell lines; type: cell-based
Procedure: In vitro evaluation of compounds for anticancer activity in a panel of 12 human tumour cell lines in a monolayer proliferation assay was carried out at the Oncotest Testing Facility, Institute for Experimental Oncology, Oncotest GmbH, Freiburg.
The Oncotest cell lines were established from human tumor xenografts as described by Roth et al., (1999). The origin of the donor xenografts was described by Fiebig et al., (1999). Other cell lines were either obtained from the NCI (H460, SF-268, OVCAR-3, DU145, MDA-MB-231, MDA-MB-468) or purchased from DSMZ, Braunschweig, Germany (LNCAP).
All cell lines, unless otherwise specified, were grown at 37° C. in a humidified atmosphere (95% air, 5% CO2) in a ‘ready-mix’ medium containing RPMI 1640 medium, 10% fetal calf serum, and 0.1 mg/mL gentamicin (PAA, Cölbe, Germany).
A modified propidium iodide assay was used to assess the effects of the test compound(s) on the growth of human tumour cell lines (Dengler et al., (1995)).
Briefly, cells were harvested from exponential phase cultures by trypsinization, counted and plated in 96 well flat-bottomed microtitre plates at a cell density dependent on the cell line (5-10.000 viable cells/well). After 24 h recovery to allow the cells to resume exponential growth, 0.010 mL of culture medium (6 control wells per plate) or culture medium containing macbecin were added to the wells. Each concentration was plated in triplicate. Compounds were applied in two concentrations (0.001 mM and 0.01 mM). Following 4 days of continuous exposure, cell culture medium with or without test compound was replaced by 0.2 mL of an aqueous propidium iodide (PI) solution (7 mg/L). To measure the proportion of living cells, cells were permeabilized by freezing the plates. After thawing the plates, fluorescence was measured using the Cytofluor 4000 microplate reader (excitation 530 nm, emission 620 nm), giving a direct relationship to the total number of viable cells.
The mean growth inhibition across the 12 cell-line panel was expressed as treated/control×100 (% T/C).
In vitro evaluation of the test compounds for anticancer activity in a panel of human tumour cell lines in a monolayer proliferation assay was carried out as described in the general methods using a modified propidium iodide assay. This screen may be used as a model for the toxic effect of compounds in inhibiting general cell growth.

CAM vasculature = test: Chick chorioallantoic membrane (CAM) assay of anti-angiogenic activity; type: in vivo
Procedure: Fresh fertile eggs were be incubated for 3 days in a standard egg incubator at 37° C. for 3 days. On Day 3, eggs were cracked under sterile conditions and embryos were placed into 20×100 mm plastic plates and cultivated at 37° C. in an embryo incubator with a water reservoir on the bottom shelf. Air was continuously bubbled into the water reservoir using a small pump so that the humidity in the incubator was kept constant. […] Embryos were returned to the incubator after addition of test material. Control embryos received 10 μL of vehicle alone. […] The blood vessel density was semi-quantitatively measured using an angiogenesis scoring system, in that exponential numbers 1 to 32 were used to indicate number of blood vessels present at the treatment sites on the CAM. Number 32 represented the highest density and 0 represented no angiogenesis. The percent of inhibition at each dosing site was calculated using the score recorded for that site divided by the mean score obtained from the appropriate control samples for each individual experiment. The percent of inhibition for each dose of a given compound was calculated by pooling all results obtained for that dose.

capillary tube formation = settings: Wakabayashi et al., 1997, cited from earlier work
[2] = tested on: human umbilical vein endothelial cells (HUVEC); settings: cited from earlier work
[3] = tested on: protein synthesis in the cultured rat cells; settings: cited from earlier work
[4] = molecular target: cyclin-dependant kinase Cdc28/Cln2 (Saccharomyces cerevisiae, UniProt P00546); settings: Tsuchiya et al., 2001; cited from earlier work
Sequence of cyclin-dependant kinase Cdc28/Cln2 (P00546 whole entry): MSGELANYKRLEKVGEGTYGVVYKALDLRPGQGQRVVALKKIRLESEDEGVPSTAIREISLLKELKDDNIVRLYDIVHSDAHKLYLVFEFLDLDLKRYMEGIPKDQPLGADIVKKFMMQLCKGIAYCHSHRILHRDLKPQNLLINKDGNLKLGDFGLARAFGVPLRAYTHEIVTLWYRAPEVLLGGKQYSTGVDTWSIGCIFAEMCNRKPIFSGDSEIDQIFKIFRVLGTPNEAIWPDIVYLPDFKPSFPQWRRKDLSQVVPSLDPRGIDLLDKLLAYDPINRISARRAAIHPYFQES
Sequence of cyclin-dependant kinase Cdc28/Cln2 (P20438 whole entry partner): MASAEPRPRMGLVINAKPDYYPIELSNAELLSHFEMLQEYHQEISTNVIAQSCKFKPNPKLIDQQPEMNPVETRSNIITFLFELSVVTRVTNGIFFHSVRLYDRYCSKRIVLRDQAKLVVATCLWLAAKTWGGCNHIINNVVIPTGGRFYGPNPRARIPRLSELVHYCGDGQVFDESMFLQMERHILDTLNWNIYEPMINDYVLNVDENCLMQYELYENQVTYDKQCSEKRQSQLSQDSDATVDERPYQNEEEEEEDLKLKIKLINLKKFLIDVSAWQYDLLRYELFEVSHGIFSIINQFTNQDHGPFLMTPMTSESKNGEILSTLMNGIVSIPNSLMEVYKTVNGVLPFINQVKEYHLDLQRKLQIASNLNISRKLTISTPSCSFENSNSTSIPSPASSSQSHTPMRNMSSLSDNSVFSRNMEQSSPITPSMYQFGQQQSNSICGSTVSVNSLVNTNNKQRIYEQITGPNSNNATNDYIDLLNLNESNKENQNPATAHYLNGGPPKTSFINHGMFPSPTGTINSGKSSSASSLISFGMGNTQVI

[5] = tested on: VEGF-induced angiogenesis (WiDr cells); settings: 1.8 mg/kg by intraperitoneal injection; Funahashi et al., 1999; cited from earlier work
B16-BL6 melanoma cells = settings: same dosage (1.8 mg/kg); cited from earlier work
[6] = tested on: Lewis lung adenocarcinoma; settings: WO 01/09113; cited from earlier work

C[C@@H]1C[C@H](C)C[C@H](C)[C@@H](O)CC(=O)O[C@H]([C@@H]2CCC[C@H]2C(=O)O)C/C=C/C=C(/C#N)[C@H](O)[C@@H](C)C1 [Compound 1, Borrelidin]
Mean % T/C at 1 μM ([1]; 1 μM, mean growth across 12 cell-line panel, treated/control x 100, 4 days exposure): 7 % T/C | Mean % T/C at 10 μM ([1]; 10 μM, mean growth across 12 cell-line panel, treated/control x 100, 4 days exposure): 6 % T/C | inhibition at 1 µM ([1]; Homo sapiens, 1 uM, 100 minus mean %T/C at 1 uM of Table III, read-out: Mean percentage Inhibition of cancer cell lines at 1 uM): 93% | Mean percentage inhibition of CAM vasculature at 25 ng/CAM (CAM vasculature; 25 ng/CAM): 62% | Ratio of inhibition of CAM vasculature at 25 ng/CAM to in vitro cancer cell inhibition at 1 uM (CAM vasculature; 25 ng/CAM versus 1 uM in cancer cell panel): 0.6 | Mean blood vessel density score (CAM vasculature; angiogenesis score up to 32 (highest density), 0 = no angiogenesis, mean of ten experiments): 6.4 | IC50 inhibition of capillary tube formation (capillary tube formation): 0.0004 µg/mL | IC50 (capillary tube formation; read-out: IC50 inhibition of capillary tube formation): 0.8 nM | IC50 anti-proliferative activity towards HUVEC ([2]; cell growth assay, Wakabayashi et al., 1997): 0.006 µg/mL (≈ 0.0123 µM) | HUVEC anti-proliferative IC50 weaker than anti-angiogenesis activity ([2]; measured in the same medium): 15 fold | anti-angiogenesis IC50 lower than IC50 for inhibition of protein synthesis ([3]; 0.4 ng/mL versus 20 ng/mL): 50 fold | IC50 inhibition of protein synthesis ([3]; cultured rat cells): 0.02 µg/mL | IC50 Cdc28/Cln2 [4]: 12 µg/mL (≈ 24.5 µM) | increment of vascular volume induced by WiDr cells [5]: significantly reduce | inhibition of the formation of spontaneous lung metastases (B16-BL6 melanoma cells): effective | propagation of metastatic nodules after removal of the primary tumour [6]: weakly inhibited
